Molecules are shown by their SMILES.

Data set [1] deals with COX-2 / COX-1. As to conditions: cited from earlier work.
Data set [2] concerns horse with pain due to laminitis. Put plainly: Pain (VAS) and blood pressure in one horse with naturally occurring laminitis, multimodal analgesic therapy. The class given is in vivo. Conditions: before t-TUCB; phenylbutazone 4 mg/kg twice daily PO, gabapentin 20 mg/kg twice daily PO.
For data set [3], the target named is COX-2 (Equus caballus (Horse), UniProt O19183). Conditions: read-out: 80% maximal inhibitory concentration (IC80) against COX-2; cited from earlier work.
Data set [4] deals with Canine sEH (Canis lupus familiaris, UniProt A0A8I3NJL8). Put plainly: sEH Inhibitor Screen of Canine sEH. It is filed as biochemical. Conditions: [I] = 100 nM.
On the set-up of data set [5]: species or system horse. As to conditions: in vivo.
Data set [6] in a line: in vivo. Conditions: Thoroughbred, horse, iv, 0.1 mg/kg.
The conditions of data set [7]: human volunteers; cited from earlier work.
A short description of data set [8]: Plasma concentrations and pharmacokinetics in the laminitic horse. As to conditions: gabapentin 20 mg/kg BID PO.
Data set [9] has as its target sEH (Homo sapiens (Human), UniProt P34913). Put plainly: Activity as inhibitor of sEH (standard assays). It is filed as biochemical. An excerpt: Derivatives of urea are transition state mimetics that form a preferred group of sEH inhibitors. […] Any particular urea derivative or other compound can be easily tested for its ability to inhibit sEH by standard assays, such as those discussed herein. The production and testing of urea and carbamate derivatives as sEH inhibitors is set forth in detail in, for example, Morisseau et al., Proc Natl Acad Sci (USA) 96:8849-8854 (1999).
One category of these inhibitors comprises inhibitors that mimic the substrate for the enzyme. The lipid alkoxides (e.g., the 9-methoxide of stearic acid) are an exemplar of this group of inhibitors.

Chain of Canine sEH (A0A8I3NJL8 1-556): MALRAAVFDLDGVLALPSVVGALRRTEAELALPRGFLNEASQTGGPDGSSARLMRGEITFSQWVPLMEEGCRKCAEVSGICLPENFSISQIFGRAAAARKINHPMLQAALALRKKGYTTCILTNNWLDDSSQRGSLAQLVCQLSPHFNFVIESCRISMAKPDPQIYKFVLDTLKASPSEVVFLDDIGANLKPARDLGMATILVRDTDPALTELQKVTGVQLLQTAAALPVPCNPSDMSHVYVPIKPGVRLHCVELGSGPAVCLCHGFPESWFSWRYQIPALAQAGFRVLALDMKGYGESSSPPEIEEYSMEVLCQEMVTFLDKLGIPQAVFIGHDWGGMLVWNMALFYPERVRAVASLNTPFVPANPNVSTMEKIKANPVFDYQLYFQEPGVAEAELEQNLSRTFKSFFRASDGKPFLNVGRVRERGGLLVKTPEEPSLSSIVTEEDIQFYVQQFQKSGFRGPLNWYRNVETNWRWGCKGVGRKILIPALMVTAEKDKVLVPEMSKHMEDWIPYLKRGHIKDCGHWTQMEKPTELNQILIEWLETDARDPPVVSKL
Chain of COX-2 (O19183 18-604): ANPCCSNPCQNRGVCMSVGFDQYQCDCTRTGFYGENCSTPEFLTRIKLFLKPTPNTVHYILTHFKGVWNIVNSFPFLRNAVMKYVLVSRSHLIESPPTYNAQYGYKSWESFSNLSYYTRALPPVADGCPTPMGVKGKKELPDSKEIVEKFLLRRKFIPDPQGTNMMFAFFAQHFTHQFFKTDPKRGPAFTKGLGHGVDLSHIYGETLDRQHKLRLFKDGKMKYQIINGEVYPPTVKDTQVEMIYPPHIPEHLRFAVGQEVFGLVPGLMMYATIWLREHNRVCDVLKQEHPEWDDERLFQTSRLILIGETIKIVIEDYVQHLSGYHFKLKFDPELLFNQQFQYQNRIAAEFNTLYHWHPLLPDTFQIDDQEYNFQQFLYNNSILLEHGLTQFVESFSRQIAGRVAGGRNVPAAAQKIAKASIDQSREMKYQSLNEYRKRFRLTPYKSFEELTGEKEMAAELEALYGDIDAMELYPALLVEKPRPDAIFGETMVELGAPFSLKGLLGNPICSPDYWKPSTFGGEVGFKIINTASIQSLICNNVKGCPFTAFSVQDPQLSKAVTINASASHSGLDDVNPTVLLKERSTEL
Chain of sEH (P34913 whole entry): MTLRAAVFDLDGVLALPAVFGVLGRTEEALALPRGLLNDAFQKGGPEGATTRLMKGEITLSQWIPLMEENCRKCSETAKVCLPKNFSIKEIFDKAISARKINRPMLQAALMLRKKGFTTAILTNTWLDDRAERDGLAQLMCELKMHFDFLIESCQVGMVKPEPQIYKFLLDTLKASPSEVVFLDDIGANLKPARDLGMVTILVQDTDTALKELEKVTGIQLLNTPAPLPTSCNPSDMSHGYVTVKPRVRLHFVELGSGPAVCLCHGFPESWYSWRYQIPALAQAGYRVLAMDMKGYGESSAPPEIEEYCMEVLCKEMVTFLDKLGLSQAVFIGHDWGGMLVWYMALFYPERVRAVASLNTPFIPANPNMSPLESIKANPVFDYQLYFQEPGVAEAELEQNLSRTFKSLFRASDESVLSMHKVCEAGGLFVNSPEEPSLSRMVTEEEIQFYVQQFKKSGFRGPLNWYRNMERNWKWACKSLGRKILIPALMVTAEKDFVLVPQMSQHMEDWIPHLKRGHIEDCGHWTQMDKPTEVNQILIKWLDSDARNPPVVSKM

For `CC(=O)Oc1ccccc1C(=O)O` [Aspirin], the “COX-2 (IC50)/COX-1 (IC50) ratio” value in data set [1] is reported as 0.32.

In the case of `CCCCC1C(=O)N(c2ccccc2)N(c2ccccc2)C1=O` [phenylbutazone], the “response of laminitis pain to therapy” value in data set [2] was “refractory”. Moreover, the IC80 in data set [3] is around 23 µM.

`CS(=O)(=O)NC(=O)c1ccc(O[C@H]2CC[C@H](NC(=O)Nc3ccc(OC(F)(F)F)cc3)CC2)cc1` [compound 2728, N-(methylsulfonyl)-4-(trans-4-(3-(4-trifluoromethoxy-phenyl)-ureido)-cyclohexyloxy)-benzamide]: the inhibition (in general, the change of the read-out against control, counted positive when it falls) at 0.1 µM in data set [4] is 84%.

In [4], `O=C(O)CNC(=O)c1ccc(O[C@H]2CC[C@H](NC(=O)Nc3ccc(OC(F)(F)F)cc3)CC2)cc1` [compound 2283, trans-2-(4-(4-(3-(4-trifluoromethoxy-phenyl)-ureido)-cyclohexyloxy)-benzamido)-acetic acid] showed an inhibition at 0.1 µM of 64%.

Take `O=C(Nc1ccc(OC(F)(F)F)cc1)N[C@H]1CC[C@H](Oc2ccc(C(=O)O)cc2)CC1` [compound 1728, trans-4-{4-[3-(4-Trifluoromethoxy-phenyl)-ureido]-cyclohexyloxy}-benzoic acid]: in data set [5], the Anisocytosis entry is reported as “Slight”, the “Bilirubin Direct” value was 0.1 mg/dL, the Creatinine turned out to be 1.1 mg/dL and the Echinocytes result is reported as “Few”. In [5], this compound displayed a GGT of 11 IU L^−1 and an SDH-37 of 0 IU L^−1. Also, in data set [6], the half-life (usually the time in which the quantity being followed falls by half) is 29.8 h.

In turn, `Cc1oc(=O)oc1COC(=O)c1ccc(O[C@H]2CC[C@H](NC(=O)Nc3ccc(OC(F)(F)F)cc3)CC2)cc1` [compound 2796, (5-methyl-2-oxo-1,3-dioxol-4-yl)methyl 4-((1r,4r)-4-(3-(4-(trifluoromethoxy)-phenyl)-ureido)-cyclohexyloxy)-benzoate] showed an inhibition at 0.1 µM in data set [4] of 84%.

Turning to `O=C(Nc1ccc(OC(F)F)cc1)N[C@H]1CC[C@H](Oc2ccc(C(=O)O)cc2)CC1` [compound 2805, 4-(trans-4-(3-(4-(difluoromethoxy)-phenyl)-ureido)-cyclohexyloxy)-benzoic acid], the inhibition at 0.1 µM in data set [4] was 95%.

Regarding `O=C(Nc1ccc(OC(F)(F)F)cc1)N[C@H]1CC[C@H](Oc2ccc(C(=O)NO)cc2)CC1` [compound 2761, N-hydroxy-4-(trans-4-(3-(4-(trifluoromethoxy)-phenyl)-ureido)-cyclohexyloxy)-benzamide], the inhibition at 0.1 µM in [4] worked out at 72%.

On to `O=C(Nc1ccc(OC(F)(F)F)cc1)N[C@H]1CC[C@H](Oc2ccc(-c3nnn[nH]3)cc2)CC1` [compound 2806, 1-(trans-4-(4-(1H-tetrazol-5-yl)-phenoxy)-cyclohexyl)-3-(4-(trifluoromethoxy)-phenyl)-urea], for which the inhibition at 0.1 µM in data set [4] is 99%.

With `COC(=O)c1ccc(NC2CCC(NC(=O)Nc3ccc(OC(F)(F)F)cc3)CC2)cc1` (stereo not shown) [compound 2804, methyl 4-(4-(3-(4-(trifluoromethoxy)-phenyl)-ureido)-cyclohexylamino)-benzoate], 0.1 µM produced 49% inhibition in data set [4].

In turn, `O=C(Nc1ccc(OC(F)(F)F)cc1)NC1CCC(Oc2ncccn2)CC1` (stereo not shown) [compound 2810, 1-(4-(pyrimidin-2-yloxy)-cyclohexyl)-3-(4-(trifluoromethoxy)-phenyl)-urea] came in with an inhibition at 0.1 µM in data set [4] of 52%.

`NCC1(CC(=O)O)CCCCC1` [gabapentin]: the “response of laminitis pain to therapy” value in data set [2] is reported as “refractory”. In data set [7], the “plasma concentration associated with analgesia” value is around 18 µM. For the same compound, the “lowest measured plasma concentration” value in data set [8] was found to be 1 µM. Besides, the “highest measured plasma concentration” value in data set [8] (first sampling five hours after dosing) was 18 µM.

`O=C(Nc1ccccc1F)N[C@H]1CC[C@H](Oc2ccc(C(=O)O)cc2)CC1` [compound 2736, 4-(trans-4-(3-(2-fluorophenyl)-ureido)-cyclohexyloxy)-benzoic acid] displayed an inhibition at 0.1 µM in data set [4] of 80%.

Turning to `O=C(Nc1ccc(Oc2ccc(C(=O)O)cc2)cc1)Nc1ccc(OC(F)(F)F)cc1` [compound 2803, 4-(4-(3-(4-(trifluoromethoxy)-phenyl)-ureido)-phenoxy)-benzoic acid], in data set [4], the inhibition at 0.1 µM was 82%.

In data set [4], `O=C(Nc1ccc(OC(F)(F)F)cc1)Nc1ccc(Oc2ccc(C(=O)O)cc2)cc1F` [compound 2807, 4-(3-fluoro-4-(3-(4-(trifluoromethoxy)-phenyl)-ureido)-phenoxy)-benzoic acid] came in with an inhibition at 0.1 µM of 95%.

On to `CCCCCCCCCCCCNC(=O)NC12CC3CC(CC(C3)C1)C2` [ADU, N-Adamantyl-N′-dodecyl urea], for which the “activity as an inhibitor of sEH” value in data set [9] is recorded as “particularly high activity on sEH”.

Compound `O=C1CCC(NC(=O)Nc2ccc(OC(F)(F)F)cc2)CC1` [compound 2809, 1-(4-oxocyclohexyl)-3-(4-(trifluoromethoxy)-phenyl)-urea] yielded an inhibition at 0.1 µM in data set [4] of 51%.

As for `COc1ccc2c(c1)c(CC(=O)O)c(C)n2C(=O)c1ccc(Cl)cc1` [indomethacin], the “COX-2 (IC50)/COX-1 (IC50) ratio” value in data set [1] is reported as 33.

Values taken from patent US10383835B2, “Treatment of inflammatory disorders in non-human mammals” (The Regents of the University of California, priority 2012, dated 2019).
